In PubChem BioAssay AID1963851 (Molecular Pharmacology Branch, DTP, NCI, 2024):
pIC50: −log10 of the molar value.

System: 188146-221-R-J1-PDC complex spheroid viability
Assay: Anticancer human tumor 188146-221-R-J1-PDC patient-derived colon adenocarcinoma cell line growth inhibition [POLQ]
Details: for pIC50: curve of first compound; for viability, T/C: stronger effect = lower value
How it was run: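 Complex spheroid viability model combining PDC tumour cells with endothelial (HUVEC) and MSC stromal cells. Novobiocin, ART-558 or RP6685 were tested singly and in combination with standard and investigational anticancer drugs. Each was titrated in half-log steps from near clinical Cmax, or from 10 microM where Cmax was unknown.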

[1] = second compound 0.0316 µM, first compound 0.0316 µM
[2] = second compound 0.0316 µM, first compound 0.1 µM
[3] = second compound 0.0316 µM, first compound 0.316 µM
[4] = second compound 0.0316 µM, first compound 1 µM
[5] = second compound 0.0316 µM, first compound 3.16 µM
[6] = second compound 0.0316 µM, first compound 10 µM
[7] = second compound 0.1 µM, first compound 0.0316 µM
[8] = second compound 0.1 µM, first compound 0.1 µM
[9] = second compound 0.1 µM, first compound 0.316 µM
[10] = second compound 0.1 µM, first compound 1 µM
[11] = second compound 0.1 µM, first compound 3.16 µM
[12] = second compound 0.1 µM, first compound 10 µM
[13] = second compound 0.316 µM, first compound 0.0316 µM
[14] = second compound 0.316 µM, first compound 0.1 µM
[15] = second compound 0.316 µM, first compound 0.316 µM
[16] = second compound 0.316 µM, first compound 1 µM
[17] = second compound 0.316 µM, first compound 3.16 µM
[18] = second compound 0.316 µM, first compound 10 µM
[19] = second compound 1 µM, first compound 0.0316 µM
[20] = second compound 1 µM, first compound 0.1 µM
[21] = second compound 1 µM, first compound 0.316 µM
[22] = second compound 1 µM, first compound 1 µM
[23] = second compound 1 µM, first compound 3.16 µM
[24] = second compound 1 µM, first compound 10 µM
[25] = second compound 3.16 µM, first compound 0.0316 µM
[26] = second compound 3.16 µM, first compound 0.1 µM
[27] = second compound 3.16 µM, first compound 0.316 µM
[28] = second compound 3.16 µM, first compound 1 µM
[29] = second compound 3.16 µM, first compound 3.16 µM
[30] = second compound 3.16 µM, first compound 10 µM
[31] = second compound 10 µM, first compound 0.0316 µM
[32] = second compound 10 µM, first compound 0.1 µM
[33] = second compound 10 µM, first compound 0.316 µM
[34] = second compound 10 µM, first compound 1 µM
[35] = second compound 10 µM, first compound 3.16 µM
[36] = second compound 10 µM, first compound 10 µM
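Also: spheroids exposed to compounds for seven days.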
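For viability, T/C in this document: 100% = DMSO vehicle control viability.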

In the case of `CNCc1ccc(-c2[nH]c3cc(F)cc4c3c2CCNC4=O)cc1` + COC1C(OC(N)=O)C(O)C(Oc2ccc3c(O)c(NC(=O)c4ccc(O)c(CC=C(C)C)c4)c(=O)oc3c2C)OC1(C)C, the pIC50 (second compound 0.0316 µM) was less than 5.00, the pIC50 (second compound 0.1 µM) was less than 5.00 and the pIC50 (second compound 0.316 µM) was less than 5.00. It also gave a pIC50 (second compound 1 µM) of less than 5.00, a pIC50 (second compound 3.16 µM) of less than 5.00 and a pIC50 (second compound 10 µM) of less than 5.00. It also gave a viability, T/C [1] of 111%, a viability, T/C [2] of 98.3% and a viability, T/C [3] of 109%. For the same compound, the viability, T/C [4] was 102%, the viability, T/C [5] was 103% and the viability, T/C [6] was 96.5%. For the same compound, the viability, T/C [7] was 118%, the viability, T/C [8] was 104% and the viability, T/C [9] was 106%. For the same compound, the viability, T/C [10] was 99.6%, the viability, T/C [11] was 102% and the viability, T/C [12] was 117%. For the same compound, the viability, T/C [13] was 106%, the viability, T/C [14] was 101% and the viability, T/C [15] was 102%. It also gave a viability, T/C [16] of 111%, a viability, T/C [17] of 112% and a viability, T/C [18] of 104%. The viability, T/C [19] was 108%, the viability, T/C [20] was 110% and the viability, T/C [21] was 106%. For the same compound, the viability, T/C [22] was 105%, the viability, T/C [23] was 99.5% and the viability, T/C [24] was 115%. It also gave a viability, T/C [25] of 98.1%, a viability, T/C [26] of 99.8% and a viability, T/C [27] of 106%. It also gave a viability, T/C [28] of 101%, a viability, T/C [29] of 111% and a viability, T/C [30] of 107%. It also gave a viability, T/C [31] of 111%, a viability, T/C [32] of 103% and a viability, T/C [33] of 110%. It also gave a viability, T/C [34] of 93.2%, a viability, T/C [35] of 117% and a viability, T/C [36] of 121%.

In the case of `C#Cc1c(F)ccc2cc(O)cc(-c3ncc4c(N5CC6CCC(C5)N6)nc(OCC56CCCN5CC(F)C6)nc4c3F)c12` (stereo unspecified) + Nc1ccc(C#CCN(C(=O)Cc2ncc(C(F)(F)F)cc2C(F)(F)F)c2ccc(F)cc2)nn1, the pIC50 (second compound 0.0316 µM) was less than 5.00, the pIC50 (second compound 0.1 µM) was less than 5.00 and the pIC50 (second compound 0.316 µM) was less than 5.00. For the same compound, the pIC50 (second compound 1 µM) was less than 5.00, the pIC50 (second compound 3.16 µM) was less than 5.00 and the pIC50 (second compound 10 µM) was less than 5.00. The viability, T/C [1] was 94.3%, the viability, T/C [2] was 100% and the viability, T/C [3] was 98.2%. For the same compound, the viability, T/C [4] was 89.7%, the viability, T/C [5] was 83.2% and the viability, T/C [6] was 89.4%. The viability, T/C [7] was 99.9%, the viability, T/C [8] was 105% and the viability, T/C [9] was 95.5%. The viability, T/C [10] was 95.1%, the viability, T/C [11] was 89.9% and the viability, T/C [12] was 103%. The viability, T/C [13] was 103%, the viability, T/C [14] was 83.5% and the viability, T/C [15] was 100%. For the same compound, the viability, T/C [16] was 96.8%, the viability, T/C [17] was 87.8% and the viability, T/C [18] was 86.6%. It also gave a viability, T/C [19] of 88.6%, a viability, T/C [20] of 86.7% and a viability, T/C [21] of 98.8%. It also gave a viability, T/C [22] of 92.3%, a viability, T/C [23] of 91.3% and a viability, T/C [24] of 80.8%. For the same compound, the viability, T/C [25] was 106%, the viability, T/C [26] was 102% and the viability, T/C [27] was 102%. For the same compound, the viability, T/C [28] was 95.9%, the viability, T/C [29] was 100% and the viability, T/C [30] was 86.5%. It also gave a viability, T/C [31] of 102%, a viability, T/C [32] of 93.5% and a viability, T/C [33] of 87.1%. For the same compound, the viability, T/C [34] was 105%, the viability, T/C [35] was 106% and the viability, T/C [36] was 89.5%.

In the case of `C#Cc1c(F)ccc2cc(O)cc(-c3ncc4c(N5CC6CCC(C5)N6)nc(OCC56CCCN5CC(F)C6)nc4c3F)c12` (stereo unspecified) + COC1C(OC(N)=O)C(O)C(Oc2ccc3c(O)c(NC(=O)c4ccc(O)c(CC=C(C)C)c4)c(=O)oc3c2C)OC1(C)C, the pIC50 (second compound 0.0316 µM) was less than 5.00, the pIC50 (second compound 0.1 µM) was less than 5.00 and the pIC50 (second compound 0.316 µM) was less than 5.00. It also gave a pIC50 (second compound 1 µM) of less than 5.00, a pIC50 (second compound 3.16 µM) of less than 5.00 and a pIC50 (second compound 10 µM) of less than 5.00. The viability, T/C [1] was 105%, the viability, T/C [2] was 93.5% and the viability, T/C [3] was 100%. For the same compound, the viability, T/C [4] was 100%, the viability, T/C [5] was 103% and the viability, T/C [6] was 83.1%. The viability, T/C [7] was 122%, the viability, T/C [8] was 94% and the viability, T/C [9] was 92.5%. It also gave a viability, T/C [10] of 95.9%, a viability, T/C [11] of 85.2% and a viability, T/C [12] of 93.5%. The viability, T/C [13] was 113%, the viability, T/C [14] was 95.9% and the viability, T/C [15] was 102%. For the same compound, the viability, T/C [16] was 92.8%, the viability, T/C [17] was 92.5% and the viability, T/C [18] was 103%. For the same compound, the viability, T/C [19] was 112%, the viability, T/C [20] was 96.1% and the viability, T/C [21] was 100%. The viability, T/C [22] was 90.5%, the viability, T/C [23] was 93.8% and the viability, T/C [24] was 88.8%. It also gave a viability, T/C [25] of 106%, a viability, T/C [26] of 103% and a viability, T/C [27] of 110%. It also gave a viability, T/C [28] of 87.2%, a viability, T/C [29] of 104% and a viability, T/C [30] of 82.6%. The viability, T/C [31] was 100%, the viability, T/C [32] was 98.6% and the viability, T/C [33] was 108%. For the same compound, the viability, T/C [34] was 97.2%, the viability, T/C [35] was 95.6% and the viability, T/C [36] was 92.8%.
